The results in this text go back to patent publication US20260354380A1, “PYRAZOLO PESTICIDAL COMPOUNDS” (BASF SE, priority 2022, published 2026).

Holding throughout (format): in vivo
For one data set, the system named is Dichromothrips corbetti. Kind of data set: Action on Orchid Thrips (Dichromothrips corbetti). Particulars: 300 ppm; adults; 72 hours after treatment. The method, then:
Example B2: Action on Orchid Thrips (Dichromothrips corbetti)
Dichromothrips corbetti adults used for bioassay were obtained from a colony maintained continuously under laboratory conditions. For testing purposes, the test compound is diluted in a 1:1 mixture of acetone: water (vol: vol), plus Kinetic® HV at a rate of 0.01% v/v.
Thrips potency of each compound was evaluated by using a floral-immersion technique. All petals of individual, intact orchid flowers were dipped into treatment solution and allowed to dryin Petri dishes. Treated petals were placed into individual re-sealable plastic along with about 20 adult thrips. All test arenas were held under continuous light and a temperature of about 28 °C for duration of the assay. After 3 days, the numbers of live thrips were counted on each petal. The percent mortality was recorded 72 hours after treatment.

The test system of data set [1] is Plutella xylostella. Kind of data set: Action on Diamond Back Moth (Plutella xylostella), cabbage leaf dip, 3rd instar larvae. Particulars: 300 ppm; 3rd instar larvae; 72 hours after treatment. In outline: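 Cabbage leaves dipped in compound solution (1:1 water:acetone, 0.01% v/v surfactant), air-dried, then infested with ten 3rd-instar larvae in petri dishes on moist filter paper. Mortality scored at 72 h after treatment; feeding damage rated on a 0–100% scale.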

A further data set concerns Heliothis virescens. The data set is described as follows: Action on Tobacco Budworm (Heliothis virescens). Particulars: 800 ppm; egg and larval mortality; 5 days. In outline: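 Compounds in 25% DMSO/75% water were sprayed at several concentrations onto insect diet in microtiter wells holding 15-25 eggs, two replications. After 5 days at about 28±1 °C and 80±5% RH, egg and larval mortality was scored visually.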

A further data set concerns Anthonomus grandis. The data set is described as follows: Action on Boll Weevil (Anthonomus grandis). Particulars: 800 ppm; egg and larval mortality; 5 days. In outline: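 Compounds in 75:25 water:DMSO sprayed at several concentrations onto insect diet in microtiter wells holding 5-10 eggs, two replicates. Plates kept 5 days at about 25±1 °C and 75±5% RH; egg and larval mortality scored visually.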

The next data set concerns Aedes aegypti. Kind of data set: whole plant or invertebrate. Particulars: 800 ppm; larvae; 2 days. In short, it runs like this:
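Freshly hatched larvae (5-15 per well) were held in tap water, and compounds formulated in 25% DMSO/water were sprayed onto diet at several concentrations in duplicate. Larval mortality was scored visually after 2 days at 28±1 °C, 80±5% RH.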

The test system of the next data set is Spodoptera eridania. Kind of data set: Action on Southern Armyworm (Spodoptera eridania), 2nd Instar Larvae. Particulars: 300 ppm; 2nd instar larvae; 4 days after treatment. In outline:
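Compounds in 50% acetone/water with 0.01% nonionic surfactant sprayed electrostatically onto Lima bean plants at 1st true leaf stage. After drying, 10–11 2nd-instar larvae bagged with each pot, kept about 25 °C, 20–40% RH. Mortality and reduced feeding scored at 4 days vs untreated plants.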

Data set [2] deals with Plutella xylostella. Kind of data set: Action on Diamond Back Moth (Plutella xylostella), microtiter plates, insect diet, eggs. Particulars: 800 ppm; egg and larval mortality; 5 days. In short, it runs like this:
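Diet in 96-well plates with 15–25 P. xylostella eggs, sprayed with compound formulated in 75% water/25% DMSO at several concentrations, two replicates; mixtures combined in equal volumes. Incubated 5 days at 28±1 °C, 80±5% RH, then egg and larval mortality scored visually.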

Turning to `Cc1nn(-c2ccc(NC(=O)N=C3SCC(=O)N3c3cc(C#N)ccc3C(C)C)cc2)cc1NC(=O)c1ccc(OC(F)(F)F)cc1` [Example C-10], the “mortality in comparison with untreated controls” value (shortened to “mortality in comparison”) with Dichromothrips corbetti is given as “at least 75%”; in the data set with Plutella xylostella [1], “at least 75%”; with Heliothis virescens it was “at least 75%”; in the data set on Anthonomus grandis, “at least 75%”; with Aedes aegypti it was “at least 50%”; in the data set with Spodoptera eridania, “at least 75%”.

Consider `Cc1ccc(C(F)(F)F)c(N2C(=O)CSC2=NC(=O)Nc2ccc(-n3cc(N(C)C(=O)c4ccc(OC(F)(F)F)cc4)c(C)n3)cc2)c1` [Example C-11], for which the “mortality in comparison” value is “at least 75%” in the data set with Dichromothrips corbetti; “at least 75%” with Plutella xylostella [1]; “at least 75%” in the data set with Heliothis virescens; “at least 75%” with Anthonomus grandis; “at least 50%” in the data set with Aedes aegypti; “at least 75%” in the data set with Spodoptera eridania.

`Cc1nn(-c2ccc(NC(=O)/N=C3\SCC(=O)N3c3cc(N(C)C)ccc3C(C)C)cc2)c(C)c1NC(=O)c1ccc(OC(F)(F)F)cc1` [Example C-17]: the “mortality in comparison” value is recorded as “at least 75%” with Dichromothrips corbetti; “at least 75%” in the data set on Plutella xylostella [1]; “at least 75%” in the data set on Heliothis virescens; “at least 75%” in the data set on Anthonomus grandis; “at least 50%” in the data set on Aedes aegypti; “at least 75%” in the data set on Spodoptera eridania.

Turning to `Cc1ccc(C(C)C)c(N2C(=O)CS/C2=N\C(=O)Nc2ccc(-n3nc(C)c(NC(=O)c4ccc(OC(F)(F)F)cc4)c3C)cc2C)c1` [Example C-18], the “mortality in comparison” value in the data set with Dichromothrips corbetti is reported as “at least 75%”; in the data set with Plutella xylostella [1] it was “at least 75%”; in the data set on Heliothis virescens, “at least 75%”; in the data set with Anthonomus grandis, “at least 75%”; in the data set on Aedes aegypti, “at least 50%”; with Spodoptera eridania, “at least 75%”.

Regarding `Cc1ccc(C(C)C)c(N2C(=O)CS/C2=N\C(=O)Nc2ccc(-n3nc(C)c(NC(=O)c4ccc(OC(F)(F)F)cc4)c3C)cc2Br)c1` [Example C-19], the “mortality in comparison” value is on record as “at least 75%” in the data set on Dichromothrips corbetti; “at least 75%” with Plutella xylostella [1]; “at least 75%” in the data set with Heliothis virescens; “at least 75%” in the data set with Anthonomus grandis; “at least 50%” in the data set on Aedes aegypti; “at least 75%” in the data set on Spodoptera eridania.

For `Cc1ccc(C(C)C)c(N2C(=O)CS/C2=N\C(=O)Nc2ccc(-n3nc(C)c(NC(=O)c4ccc(OC(F)(F)F)cc4)c3C)cc2OC(F)F)c1` [Example C-20], the “mortality in comparison” value with Dichromothrips corbetti is given as “at least 75%”; in the data set with Plutella xylostella [1], “at least 75%”; with Heliothis virescens, “at least 75%”; in the data set with Anthonomus grandis, “at least 75%”; in the data set on Aedes aegypti, “at least 50%”; with Spodoptera eridania, “at least 75%”.

For the compound `Cc1ccc(C(C)C)c(N2C(=O)CS/C2=N\C(=O)Nc2ccc(-n3cc(NC(=O)c4cc(F)c(F)c(F)c4)c(C)n3)cc2)c1` [Example C-23], the “mortality in comparison” value with Dichromothrips corbetti is given as “at least 75%”; in the data set on Plutella xylostella [1], “at least 75%”; with Heliothis virescens it was “at least 75%”; with Anthonomus grandis it was “at least 75%”; in the data set with Aedes aegypti, “at least 50%”; with Spodoptera eridania it was “at least 75%”.

Regarding `Cc1ccc(C(C)C)c(N2C(=O)CS/C2=N\C(=O)Nc2ccc(-n3cc(NC(=O)c4ccc(F)c(F)c4)c(C)n3)cc2)c1` [Example C-25], the “mortality in comparison” value is recorded as “at least 75%” with Dichromothrips corbetti; “at least 75%” in the data set on Plutella xylostella [1]; “at least 75%” in the data set with Heliothis virescens; “at least 75%” in the data set with Anthonomus grandis; “at least 50%” with Aedes aegypti; “at least 75%” with Spodoptera eridania.

`Cc1ccc(C(C)C)c(N2C(=O)CSC2=NC(=O)Nc2ccc(-n3nc(C)c(N(CC4CC4)C(=O)c4ccc(OC(F)(F)F)cc4)c3C)cc2Cl)c1` [Example C-46]: the “mortality in comparison” value with Dichromothrips corbetti is recorded as “at least 75%”; in the data set with Heliothis virescens it was “at least 75%”; in the data set on Anthonomus grandis it was “at least 75%”; in the data set on Aedes aegypti it was “at least 50%”; in the data set with Spodoptera eridania, “at least 75%”; with Plutella xylostella [2] it was “at least 75%”.

`CCN(C(=O)c1ccc(OC(F)(F)F)cc1)c1c(C)nn(-c2ccc(NC(=O)/N=C3\SCC(=O)N3c3cc(C)ccc3C(C)C)c(Cl)c2)c1C` [Example C-97]: the “mortality in comparison” value in the data set on Dichromothrips corbetti is listed as “at least 75%”; in the data set on Plutella xylostella [1], “at least 75%”; in the data set with Heliothis virescens, “at least 75%”; with Anthonomus grandis it was “at least 75%”; in the data set on Aedes aegypti, “at least 50%”; with Spodoptera eridania, “at least 75%”.

Consider `Cc1ccc(C(C)C)c(N2C(=O)CS/C2=N\C(=O)Nc2cc(F)c(-n3nc(C)c(NC(=O)c4ccc(OC(F)(F)F)cc4)c3C)cc2Cl)c1` [Example C-104], for which the “mortality in comparison” value was “at least 75%” in the data set with Dichromothrips corbetti; “at least 75%” in the data set on Heliothis virescens; “at least 75%” in the data set on Anthonomus grandis; “at least 50%” with Aedes aegypti; “at least 75%” with Spodoptera eridania; “at least 75%” in the data set with Plutella xylostella [2].

Consider `Cc1ccc(C(C)C)c(N2C(=O)CSC2=NC(=O)Nc2ccc(-n3nc(C)c(NC(=O)c4ccc(OC(F)(F)F)cc4)c3C)c(Cl)c2Cl)c1` [Example C-123], for which the “mortality in comparison” value in the data set with Dichromothrips corbetti is reported as “at least 75%”; with Heliothis virescens, “at least 75%”; in the data set with Anthonomus grandis it was “at least 75%”; in the data set with Aedes aegypti it was “at least 50%”; in the data set on Spodoptera eridania it was “at least 75%”; in the data set with Plutella xylostella [2], “at least 75%”.

`Cc1ccc(C(C)C)c(N/C(=N/C(=O)Nc2ccc(-n3nc(C)c(NC(=O)c4ccc(OC(F)(F)F)cc4)c3C)cc2Cl)SCOC(=O)C(C)C)c1` [Example C-130]: the “mortality in comparison” value in the data set with Dichromothrips corbetti is “at least 75%”; in the data set with Heliothis virescens, “at least 75%”; with Anthonomus grandis it was “at least 75%”; in the data set with Aedes aegypti, “at least 50%”; in the data set on Plutella xylostella [2], “at least 75%”.
